The source made the active and inactive calls.
Columns and labels:
Type in all cases: functional
[1] = Luminescence Cell-Based Dose Retest to Confirm Inhibitors of Cancer Stem Cells. [Related pubchem assays (depositor defined):AID2717, AID2721]; settings: Homo sapiens
Melanocortin receptor 4 = Melanocortin receptor 4 (Homo sapiens, UniProt P32245); assay: MC4R antagonist potency on cAMP, dose response, cell-based, TR-FRET, biased antagonists (AID 602298);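 also: antagonist potency against agonist-stimulated cAMP production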
[2] = biological target: T1, Microphthalmia-associated transcription factor (Homo sapiens, UniProt O75030); assay: TRPM1 promoter luciferase signal decrease, dose response, MITF inhibitor project, cell-based, SK-MEL-5, cherry-picked, set 3 (AID 493073)
T1 sequence (O75030 whole entry): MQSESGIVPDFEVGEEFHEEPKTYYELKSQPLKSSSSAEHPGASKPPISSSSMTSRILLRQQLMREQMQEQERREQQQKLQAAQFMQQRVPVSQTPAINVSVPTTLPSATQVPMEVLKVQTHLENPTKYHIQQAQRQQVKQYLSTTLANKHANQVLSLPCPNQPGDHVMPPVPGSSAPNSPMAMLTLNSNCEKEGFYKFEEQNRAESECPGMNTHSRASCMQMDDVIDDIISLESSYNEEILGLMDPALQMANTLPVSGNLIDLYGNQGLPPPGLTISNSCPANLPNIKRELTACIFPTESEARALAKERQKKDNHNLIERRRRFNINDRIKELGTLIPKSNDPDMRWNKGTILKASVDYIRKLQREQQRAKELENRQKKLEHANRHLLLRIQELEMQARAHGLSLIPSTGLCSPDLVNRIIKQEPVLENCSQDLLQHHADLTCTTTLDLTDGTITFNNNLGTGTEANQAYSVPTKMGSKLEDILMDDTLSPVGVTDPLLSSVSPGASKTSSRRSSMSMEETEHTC

[3] = nonselective inhibitors of cellular cAMP signaling, dose response, counter-screen for MC4R biased antagonist project, cell-based, TR-FRET cAMP detection (AID 602305);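 also: U2OS cells stimulated with forskolin near its EC80 as the cAMP inducer; potency is for inhibition of forskolin-stimulated cAMP signaling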
[4] = biological target: Melanin-concentrating hormone receptor 1 (Homo sapiens, UniProt Q99705); assay: Late-stage fluorescence-based counterscreen for antagonists of the G-protein coupled receptor 7 (GPR7): cell-based dose response assay to identify antagonists of the melanin-concentrating hormone receptor 1 (MCHR1) Set 5.
[5] = biological target: Neuropeptides B/W receptor type 1 (Homo sapiens, UniProt P48145); assay: GPR7 antagonist potency, late-stage follow-up, cell-based, fluorescence, dose response, set 5 (AID 588566)
Sequence of Neuropeptides B/W receptor type 1 (P48145 whole entry): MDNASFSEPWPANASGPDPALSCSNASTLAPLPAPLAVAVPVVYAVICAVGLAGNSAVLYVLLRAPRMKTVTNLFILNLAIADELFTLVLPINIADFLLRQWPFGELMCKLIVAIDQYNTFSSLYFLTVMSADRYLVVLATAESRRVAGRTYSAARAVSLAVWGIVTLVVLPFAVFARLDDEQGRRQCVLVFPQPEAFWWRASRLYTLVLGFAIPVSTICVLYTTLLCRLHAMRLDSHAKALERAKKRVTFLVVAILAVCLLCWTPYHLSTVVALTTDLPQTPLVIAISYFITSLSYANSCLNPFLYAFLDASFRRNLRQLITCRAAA

Sequence of Melanin-concentrating hormone receptor 1 (Q99705 whole entry): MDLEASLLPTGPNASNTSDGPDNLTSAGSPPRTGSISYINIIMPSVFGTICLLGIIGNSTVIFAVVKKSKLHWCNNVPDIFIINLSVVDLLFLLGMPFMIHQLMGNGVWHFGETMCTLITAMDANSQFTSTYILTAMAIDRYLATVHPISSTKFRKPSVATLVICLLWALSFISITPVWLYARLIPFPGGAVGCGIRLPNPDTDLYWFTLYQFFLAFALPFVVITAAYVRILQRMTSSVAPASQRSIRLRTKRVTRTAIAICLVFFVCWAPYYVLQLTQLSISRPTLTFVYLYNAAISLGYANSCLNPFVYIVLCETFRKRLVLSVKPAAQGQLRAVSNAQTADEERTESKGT
Sequence of Melanocortin receptor 4 (P32245 whole entry): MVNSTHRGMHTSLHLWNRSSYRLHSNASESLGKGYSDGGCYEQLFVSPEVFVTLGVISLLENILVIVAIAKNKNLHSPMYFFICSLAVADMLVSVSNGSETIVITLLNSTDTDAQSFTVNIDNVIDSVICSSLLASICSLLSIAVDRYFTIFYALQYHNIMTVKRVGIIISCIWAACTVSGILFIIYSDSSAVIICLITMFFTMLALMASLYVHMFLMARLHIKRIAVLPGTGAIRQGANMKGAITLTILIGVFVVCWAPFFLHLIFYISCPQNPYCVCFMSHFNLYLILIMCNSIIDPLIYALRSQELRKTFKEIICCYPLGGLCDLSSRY

| SMILES | AC50 [1] | IC50 (Melanocortin receptor 4) | AC50 [2] | IC50 [3] | IC50 [4] | IC50 [5] |
| --- | --- | --- | --- | --- | --- | --- |
| CCOC(=O)C(=Cc1ccc(-n2ccnc2)cc1)C(=O)OCC | 2.95 µM (active) | > 64.6 µM (inactive) | 9.38 µM (active) | > 64.6 µM (inactive) | – | – |
| CCOC(=O)C(C#N)c1c(Cl)cnn(Cc2cccc3ccccc23)c1=O (stereo unspecified) | – | – | – | – | 7.76 µM (active) | 0.571 µM (active) |
